Legend:
[1] = target: T1, CYP2C19 (Homo sapiens, UniProt P33261); test: Cytochrome P450 inhibition, isoenzyme 2C19; assay type: in vitro ADME; settings: baculovirus/insect cell-expressed recombinant human CYP2C19, read-out: Inhibition of the Cytochrome P450 Isoenzymes IC50, 2C19
T1 construct: host or cells: baculovirus/insect cells
Procedure: (§1) The Cytochrome P450 inhibition was performed according to the publication of Crespi et al. (Anal Biochem., 248, 188-190 (1997)) with use of baculovirus/insect cell-expressed, human Cytochrome P 450 isoenzymes (1A2, 2C9, 2C19, 2D6, 3A4).

[2] = target: VEGFR II (KDR) (Homo sapiens, UniProt P35968); test: Inhibition of the KDR kinase activity (33P-ATP, poly-(Glu4Tyr) filter assay); assay type: biochemical; settings: phosphate incorporation into poly-(Glu4Tyr), 10 minutes at room temperature
Procedure: • Stock Solutions • Stock solution A: 3 mmol of ATP in water, pH 7.0 (−70° C.) • Stock solution B: g-33P-ATP 1 mCi/100 μl • Stock solution C: poly-(Glu4 Tyr). 10 mg/ml in water Solution for Dilutions • Substrate solvent: 10 mmol of DTT, 10 mmol of manganese chloride, 100 mmol of magnesium chloride • Enzyme solution: 120 mmol of tris/HCl, pH 7.5, 10 μM of sodium vanadium oxide Sample Application 1 Inhibition of the KDR- and FLT-1 Kinase Activity in the Presence of the Compounds According to the Invention
In a microtiter plate (without protein binding) that tapers to a point, 10 μl of substrate mix (10 μl of volume of ATP stock solution A+25 μCi of g-33P-ATP (about 2.5 μl of stock solution B)+30 μl of poly-(Glu4Tyr) stock solution C+1.21 ml of substrate solvent), 10 μl of inhibitor solution (substances corresponding to the dilutions, 3% DMSO in substrate solvent as a control) and 10 μl of enzyme solution (11.25 μg of enzyme stock solution (KDR or FLT-1 kinase) are added at 4° C. in 1.25 ml of enzyme solution (dilute). It is thoroughly mixed and incubated for 10 minutes at room temperature. Then, 10 μl of stop solution (250 mmol of EDTA, pH 7.0) is added, mixed, and 10 μl of the solution is transferred to a P 81 phosphocellulose filter. Then, it is washed several times in 0.1 M phosphoric acid. The filter paper is dried, coated with Meltilex and measured in a microbeta counter.
The IC50 values are determined from the inhibitor concentration, which is necessary to inhibit the phosphate incorporation to 50% of the uninhibited incorporation after removal of the blank reading (EDTA-stopped reaction).

[3] = target: T2, CYP2C9 (Homo sapiens, UniProt P11712); test: Cytochrome P450 inhibition, isoenzyme 2C9; assay type: in vitro ADME; settings: baculovirus/insect cell-expressed recombinant human CYP2C9, read-out: Inhibition of the Cytochrome P450 Isoenzymes IC50, 2C9
T2 construct: host or cells: baculovirus/insect cells
Procedure: as §1

[4] = target: T3, CYP1A2 (Homo sapiens, UniProt P05177); test: Cytochrome P450 inhibition, isoenzyme 1A2; assay type: in vitro ADME; settings: baculovirus/insect cell-expressed recombinant human CYP1A2, read-out: Inhibition of the Cytochrome P450 Isoenzymes IC50, 1A2
T3 construct: host or cells: baculovirus/insect cells
T3 sequence (P05177 1-516): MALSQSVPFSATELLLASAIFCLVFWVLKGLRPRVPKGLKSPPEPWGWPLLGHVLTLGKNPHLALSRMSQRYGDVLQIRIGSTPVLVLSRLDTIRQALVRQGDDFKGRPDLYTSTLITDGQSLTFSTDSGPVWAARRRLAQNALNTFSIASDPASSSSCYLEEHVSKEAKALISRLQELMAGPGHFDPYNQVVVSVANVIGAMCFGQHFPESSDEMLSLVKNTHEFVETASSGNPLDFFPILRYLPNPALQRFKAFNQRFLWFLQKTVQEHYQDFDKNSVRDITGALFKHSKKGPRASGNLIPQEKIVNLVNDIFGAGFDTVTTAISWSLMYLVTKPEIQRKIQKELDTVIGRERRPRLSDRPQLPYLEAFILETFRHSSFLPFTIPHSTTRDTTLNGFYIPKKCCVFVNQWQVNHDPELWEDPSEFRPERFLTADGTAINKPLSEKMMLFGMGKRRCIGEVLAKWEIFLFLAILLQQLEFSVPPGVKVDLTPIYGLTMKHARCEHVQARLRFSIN
Procedure: as §1

[5] = target: T4, CYP2D6 (Homo sapiens, UniProt P10635); test: Cytochrome P450 inhibition, isoenzyme 2D6; assay type: in vitro ADME; settings: baculovirus/insect cell-expressed recombinant human CYP2D6, read-out: Inhibition of the Cytochrome P450 Isoenzymes IC50, 2D6
T4 construct: host or cells: baculovirus/insect cells
Procedure: as §1

[6] = target: T5, CYP3A4 (Homo sapiens, UniProt P08684); test: Cytochrome P450 inhibition, isoenzyme 3A4; assay type: in vitro ADME; settings: baculovirus/insect cell-expressed recombinant human CYP3A4, read-out: Inhibition of the Cytochrome P450 Isoenzymes IC50, 3A4
T5 construct: host or cells: baculovirus/insect cells
Procedure: as §1

VEGFR II (KDR), sequence (P35968 20-1356, species assumed): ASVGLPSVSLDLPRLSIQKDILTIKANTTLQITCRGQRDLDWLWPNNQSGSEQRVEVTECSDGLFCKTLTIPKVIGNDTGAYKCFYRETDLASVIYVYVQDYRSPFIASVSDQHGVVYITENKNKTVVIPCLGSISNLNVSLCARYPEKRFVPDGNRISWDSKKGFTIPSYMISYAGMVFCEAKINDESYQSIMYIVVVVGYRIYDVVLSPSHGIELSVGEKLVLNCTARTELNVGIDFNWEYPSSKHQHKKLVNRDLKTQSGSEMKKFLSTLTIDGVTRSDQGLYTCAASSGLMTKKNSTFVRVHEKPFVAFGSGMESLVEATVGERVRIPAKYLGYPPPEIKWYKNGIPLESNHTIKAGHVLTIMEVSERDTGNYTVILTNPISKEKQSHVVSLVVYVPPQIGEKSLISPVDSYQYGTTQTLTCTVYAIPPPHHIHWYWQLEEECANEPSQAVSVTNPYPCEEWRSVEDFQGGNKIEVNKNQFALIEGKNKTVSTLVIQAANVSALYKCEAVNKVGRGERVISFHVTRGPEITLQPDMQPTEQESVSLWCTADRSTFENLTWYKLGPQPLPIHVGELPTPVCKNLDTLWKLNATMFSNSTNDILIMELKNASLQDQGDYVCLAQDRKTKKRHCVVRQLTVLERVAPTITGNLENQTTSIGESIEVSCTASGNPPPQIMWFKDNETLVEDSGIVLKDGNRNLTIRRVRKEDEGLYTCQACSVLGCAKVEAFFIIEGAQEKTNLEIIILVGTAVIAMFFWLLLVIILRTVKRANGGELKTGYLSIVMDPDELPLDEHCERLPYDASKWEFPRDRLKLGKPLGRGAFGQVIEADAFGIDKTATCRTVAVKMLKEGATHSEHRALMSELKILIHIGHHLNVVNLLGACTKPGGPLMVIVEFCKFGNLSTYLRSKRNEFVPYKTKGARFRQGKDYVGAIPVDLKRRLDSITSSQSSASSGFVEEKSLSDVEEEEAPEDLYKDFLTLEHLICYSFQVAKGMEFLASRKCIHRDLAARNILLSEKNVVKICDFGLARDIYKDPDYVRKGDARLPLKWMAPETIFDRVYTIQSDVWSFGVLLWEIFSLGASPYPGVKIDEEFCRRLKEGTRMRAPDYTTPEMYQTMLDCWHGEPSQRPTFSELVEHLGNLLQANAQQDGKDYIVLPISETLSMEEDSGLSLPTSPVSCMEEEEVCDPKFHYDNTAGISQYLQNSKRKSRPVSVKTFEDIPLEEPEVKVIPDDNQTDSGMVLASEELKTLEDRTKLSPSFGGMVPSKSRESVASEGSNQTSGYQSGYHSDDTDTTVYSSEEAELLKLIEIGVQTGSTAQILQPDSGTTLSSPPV
T1 sequence (P33261 whole entry): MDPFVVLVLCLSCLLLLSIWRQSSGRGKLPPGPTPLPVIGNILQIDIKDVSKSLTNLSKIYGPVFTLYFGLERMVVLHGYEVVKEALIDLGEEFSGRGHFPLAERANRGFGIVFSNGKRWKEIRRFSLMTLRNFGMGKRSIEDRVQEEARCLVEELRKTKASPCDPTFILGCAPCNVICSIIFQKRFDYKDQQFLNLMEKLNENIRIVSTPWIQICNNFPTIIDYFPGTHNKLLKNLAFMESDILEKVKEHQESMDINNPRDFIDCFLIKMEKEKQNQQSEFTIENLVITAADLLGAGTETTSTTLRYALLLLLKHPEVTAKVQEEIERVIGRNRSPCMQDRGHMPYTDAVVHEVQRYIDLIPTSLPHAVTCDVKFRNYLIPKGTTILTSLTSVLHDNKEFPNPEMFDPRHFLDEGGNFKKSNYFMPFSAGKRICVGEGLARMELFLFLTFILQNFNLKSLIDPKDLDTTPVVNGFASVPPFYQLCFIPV
T2 sequence (P11712 whole entry): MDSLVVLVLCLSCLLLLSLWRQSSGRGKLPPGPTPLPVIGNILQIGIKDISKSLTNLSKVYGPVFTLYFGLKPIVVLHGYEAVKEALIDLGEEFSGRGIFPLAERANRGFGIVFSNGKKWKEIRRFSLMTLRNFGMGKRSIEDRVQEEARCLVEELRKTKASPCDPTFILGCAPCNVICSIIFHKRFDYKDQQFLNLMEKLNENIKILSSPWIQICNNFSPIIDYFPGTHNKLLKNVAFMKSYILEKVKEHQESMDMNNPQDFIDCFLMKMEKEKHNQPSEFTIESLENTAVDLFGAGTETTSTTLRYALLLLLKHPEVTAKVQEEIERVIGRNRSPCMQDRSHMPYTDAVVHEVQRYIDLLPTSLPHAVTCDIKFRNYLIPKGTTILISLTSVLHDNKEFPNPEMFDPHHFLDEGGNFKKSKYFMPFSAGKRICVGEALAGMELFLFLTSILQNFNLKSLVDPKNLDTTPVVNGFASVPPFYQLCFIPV
T4 sequence (P10635 whole entry): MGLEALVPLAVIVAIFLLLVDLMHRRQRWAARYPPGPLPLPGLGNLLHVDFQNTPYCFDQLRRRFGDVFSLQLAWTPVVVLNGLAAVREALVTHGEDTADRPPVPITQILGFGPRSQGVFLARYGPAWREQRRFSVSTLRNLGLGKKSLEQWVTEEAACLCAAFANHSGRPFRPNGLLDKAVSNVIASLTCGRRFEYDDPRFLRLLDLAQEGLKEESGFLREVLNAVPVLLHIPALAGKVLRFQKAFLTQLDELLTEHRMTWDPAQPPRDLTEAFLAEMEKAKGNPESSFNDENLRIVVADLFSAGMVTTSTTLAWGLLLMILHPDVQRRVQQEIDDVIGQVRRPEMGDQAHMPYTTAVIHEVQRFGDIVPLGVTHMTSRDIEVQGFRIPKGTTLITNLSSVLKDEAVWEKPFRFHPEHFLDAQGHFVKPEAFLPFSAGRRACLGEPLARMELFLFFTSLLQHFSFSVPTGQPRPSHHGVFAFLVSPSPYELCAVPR
T5 sequence (P08684 whole entry): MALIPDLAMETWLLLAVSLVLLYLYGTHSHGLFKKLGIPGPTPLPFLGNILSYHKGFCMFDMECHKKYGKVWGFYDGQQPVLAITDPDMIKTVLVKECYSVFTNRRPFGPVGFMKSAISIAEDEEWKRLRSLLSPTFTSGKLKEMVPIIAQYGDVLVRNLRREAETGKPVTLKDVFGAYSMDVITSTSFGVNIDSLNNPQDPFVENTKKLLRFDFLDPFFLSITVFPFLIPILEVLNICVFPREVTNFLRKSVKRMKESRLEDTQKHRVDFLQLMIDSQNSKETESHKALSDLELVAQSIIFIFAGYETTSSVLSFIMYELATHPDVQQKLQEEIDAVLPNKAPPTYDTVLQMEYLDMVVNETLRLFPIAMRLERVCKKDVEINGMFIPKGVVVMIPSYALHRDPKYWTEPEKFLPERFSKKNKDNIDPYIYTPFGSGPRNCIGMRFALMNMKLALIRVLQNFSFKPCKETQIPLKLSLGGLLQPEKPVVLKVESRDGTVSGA

Compound | IC50 [1] [nM] | IC50 [2] [nM] | IC50 [3] [nM] | IC50 [4] [nM] | IC50 [5] [nM] | IC50 [6] [nM] | melting point [°C]
O=C(Nc1cc2ccccc2cn1)c1ccccc1NCc1cc[n+]([O-])cc1 [Example 1, N-(Isoquinolin-3-yl)-2-(4-pyridylmethyl)aminobenzoic acid amide-N-oxide] | 3600 | 30 | 5200 | > 30000 | > 30000 | > 30000 | –
O=C(Nc1cc2ccccc2cn1)c1cccnc1NCc1cc[n+]([O-])cc1 [Example 7] | – | 50 | – | – | – | – | 196.2
O=C(Nc1cccc(C(F)(F)F)c1)c1cccnc1NCc1cc[n+]([O-])cc1 [Example 8] | – | 50 | – | – | – | – | –

Further molecules by falling IC50 [2], results first:

IC50 [1] [nM] | IC50 [2] [nM] | IC50 [3] [nM] | IC50 [4] [nM] | IC50 [5] [nM] | IC50 [6] [nM] | melting point [°C] | Compound
– | 200 | – | – | – | – | 191.9 | O=C(Nc1cc2ccccc2cn1)c1ccccc1NCc1ccc[n+]([O-])c1 [Example 2]
– | 50 | – | – | – | – | 181 to 184 | O=C(Nc1cccc(C(F)(F)F)c1)c1ccccc1NCc1cc[n+]([O-])cc1 [Example 4]

— patent US7459470B2, “N-oxide anthranylamide derivatives and their use as medicaments” (Schering AG, priority 2001, dated 2008)
